What was measured:
[1] = test system: Bacterial Spores; assay: Antimicrobial activity against bacterial spores versus conventional compositions; assay type: cell-based; conditions: 0.5 min, pH 3.32, 35%
Description: (§1) Antimicrobial activity was determined according to two well established methods. The first method was the procedure set out in Germicidal and Detergent Sanitizing Action of Disinfectants, Official Methods of Analysis of the Association of Official Analytical Chemists, paragraph 960.09 and applicable sections, 15th Edition, 1990 (EPA Guideline 91-2). The second method was the procedure described in A.O.A.C. Use Dilution Methods, Official Methods of Analysis of the Association of Official Analytical Chemists, paragraph 955.14 and applicable sections, 15th Edition, 1990 (EPA Guideline 91-2). Briefly, antimicrobial activity of the present compositions was determined by exposing a one mL aliquot containing the target microorganism to 99 mL of the desired concentration of the test substance at the desired temperature. After the specified contact time, one mL of the test solution containing the microorganism was neutralized and enumerated for survivors.

[2] = test system: S. aureus; assay: Antimicrobial activity, AOAC sanitizing/use dilution suspension test; assay type: cell-based; conditions: Staphylococcus aureus
Description: as §1

Row | SMILES | log reduction at 35 % ([1]; 40 °C, 30 sec) | log reduction at 35 % ([1]; 40 °C, 60 sec) | log reduction at 35 % ([1]; 40 °C, 120 sec) | log reduction at 35 % ([1]; 60 °C, 10 sec) | log reduction at 35 % ([1]; 60 °C, 20 sec) | log reduction at 35 % ([1]; 60 °C, 30 sec) | log reduction at 35 % ([1]; 80 °C, 10 sec) | log reduction at 35 % ([1]; 80 °C, 20 sec) | log reduction at 35 % ([1]; 80 °C, 30 sec) | log reduction at 5 µg/mL ([2]; concentration of 5 ppm and pH of ∼5, Table 25, read-out: log reductions of Staphylococcus aureus) | log reduction at 11 µg/mL ([2]; pH 6.1, pH of 6.1, 11 ppm of peroxyoctanoic acid (POOA), Table 13 (composition K), read-out: reducing S. aureus)
1 | OO [Composition H2O2, hydrogen peroxide] | 1.19 | 2.94 | > 6.3 | 1.59 | 4.85 | 4.89 | > 6.3 | > 6.3 | > 6.3 | – | –
2 | CCCCCCCC(=O)OO [Pure POOA Crystals, peroxyoctanoic acid] | – | – | – | – | – | – | – | – | – | 5 | > 7.04
